Values after ≈ are worked out from the molar mass of the structure shown. “Also recorded” adds a separate entry of the source.
Key:
[1] = Liver microsomal stability, mouse; assay type: in vitro ADME; settings: male, CD-1, pH 7.4, mouse liver microsomes, five time points over 1 h, read-out: MLM CLint
Description: Compounds 1 ([…] DMSO stock solutions) were diluted to 2.5 mM with DMSO and again to 0.5 mM with MeCN to give a final solution containing a 0.5 mM compound in 1:4 DMSO/MeCN. Liver microsomes from male CD-1 mice were sourced from Xenotech (Kansas City, KS, USA). A reaction plate was prepared by adding 691.25 μL and prewarmed (37 °C) microsomal solution (0.63 mg/mL protein and 1.3 mM EDTA in potassium phosphate buffer made by mixing ~250 mL of 100 mM K2HPO4 with ~65mL of KH2PO4 until the buffer reaches a pH of 7.4) to an empty well of a 96-well plate and maintained at 37 °C. […] The stability of the compound was calculated as the percentage of the unchanged parent remaining at T = 30 min relative to the peak area at T = 0 min.
To determine CLint, aliquots of 50 μL were taken from the reaction solution at 0, 15, 30, 45, and 60 min. […] Peak areas were determined from extracted ion chromatograms and the slope value, k, was determined by linear regression of the natural logarithm of the remaining percentage of the parent drug vs. incubation time curve. The intrinsic clearance (CLint in μL/min/mg) was calculated using the relationship CLint = kV/N where V is the incubation volume and N is the amount of protein per well.

CLK2 = biological target: T1, CLK2 (Homo sapiens, UniProt P49760); assay: NanoBRET dose-response CLK2; assay type: cell-based; settings: highest concentration tested 30 μM
T1 construct: expressed in transfected cells; host or cells: HEK293

Kinetic solubility = assay type: physicochemical; settings: phosphate buffered saline, 22 °C, aqueous buffer, kinetic from dmso stock; PBS pH 7.4 from DMSO stock
Description: Phosphate buffered saline (50 mL, PBS, Fisher (Pittsburgh, PA, USA), pH 7.4) was added to HPLC-grade H2O (450 mL) for a total dilution factor of 1:10 and a final PBS concentration of 1×. […] The final DMSO concentration was 2.0%, and the maximum theoretical compound concentration was 200 μM. The filter plate was heat-sealed for a 24 h incubation. The sample was placed on a rotary shaker (200 rpm) for 24 h at ambient temperature (21.6–22.8 °C) and then vacuum-filtered. All filtrates were injected into a chemiluminescent nitrogen detector for quantification. The equimolar nitrogen response of the detector was calibrated using standards that span the dynamic range of the instrument from 0.08 to 4500 μg/mL nitrogen. The filtrates were quantified with respect to this calibration curve. The calculated solubility values were corrected for background nitrogen present in DMSO and the media used to prepare the samples.

CSNK2 [2] = assay: In vitro inhibition of phosphorylation of EIF2S2; assay type: cell-based, Human; settings: A549-ACE2 cells, 1 μM and 5 μM, 24 h, Western blot
CSNK2 [3] = assay: In vivo CSNK2 inhibition (substrate phosphorylation in lungs); design: species or system Balb/c mice; settings: 30 mg/kg p.o. b.i.d.
Description: Balb/c mice (female, 8-10 weeks old, from Envigo, Inotiv, Indianapolis, IN, USA) were treated with compound 2 at 30 mg/kg p.o. in a vehicle (DMSO/PEG-400/Water (v/v/v), 10:30:60). Mice were dosed every 12 h for a total of 36 h (3 doses). At the determined time points, mice were euthanized using an overdose of isoflurane (Baxter, Deerfield, IL, USA). Blood was collected via cardiac puncture and lung lobes were collected for downstream processing and analysis. Recovered blood was placed in EDTA tubes, spun at 5000× g in a microcentrifuge and the recovered plasma transferred to a clean tube and frozen at -80 °C until analysis. The left lung lobe was added to a 2 mL O-ring skirted tube containing 750 μL of 1 × PBS containing Phos Stop (per the manufacturer's recommendation, Roche) and glass beads. Lungs were homogenized for 60 s at 6000 rpm in a Roche MagNA Lyser. Homogenates were centrifuged for 5 min at 10,000 rpm and 500 μL of the homogenate was transferred to a clean tube and frozen at -80 °C until analysis. […] Samples were quantified using the Piece Rapid Gold BCA Protein Assay kit (ThermoFisher, A53226, Waltham, MA, USA), and 50 μg protein was run on 4-20% Tris-Glycine gels and transferred to PVDF. […] Bands were quantified using Fiji and normalized to GAPDH. […]

T1 sequence (P49760 whole entry): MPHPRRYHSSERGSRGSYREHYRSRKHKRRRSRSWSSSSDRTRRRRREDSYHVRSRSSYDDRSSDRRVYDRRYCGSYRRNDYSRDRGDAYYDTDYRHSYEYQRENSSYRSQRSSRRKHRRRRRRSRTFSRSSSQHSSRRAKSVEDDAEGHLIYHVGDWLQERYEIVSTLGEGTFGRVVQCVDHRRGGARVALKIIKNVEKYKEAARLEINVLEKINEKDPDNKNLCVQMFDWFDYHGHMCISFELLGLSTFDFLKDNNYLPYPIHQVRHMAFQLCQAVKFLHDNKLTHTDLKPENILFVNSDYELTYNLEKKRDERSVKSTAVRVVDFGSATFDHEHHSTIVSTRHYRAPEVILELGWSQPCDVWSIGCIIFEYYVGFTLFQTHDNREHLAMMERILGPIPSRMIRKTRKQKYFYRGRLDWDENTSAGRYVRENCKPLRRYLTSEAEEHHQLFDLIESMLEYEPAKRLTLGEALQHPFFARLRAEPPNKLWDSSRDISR

`CCC(=O)Nc1cc(Nc2cc(NC3CC3)n3ncc(C#N)c3n2)c(F)cc1N1CCC[C@H](NC)C1` [Compound 2, (S)-N-(5-((3-cyano-7-(cyclopropylamino)pyrazolo[1,5-a]pyrimidin-5-yl)amino)-4-fluoro-2-(3-(methylamino)piperidin-1-yl)phenyl)propionamide] showed a CLint scaled at 5 μM [1] of 48.5 mL/min/kg, an IC50 (CLK2) of over 30 µM and a solubility kinetic at 24 h (Kinetic solubility) of 59 µg/mL (≈ 120 µM). For the same compound, the “phosphorylation levels of the CSNK2 substrate EIF2S2” value (CSNK2 [2]) was “inhibited; also recorded: dose-dependent reduction”, the “EIF2S2 (phospho-Ser2) levels normalized to total EIF2S2 in mouse lungs” value (CSNK2 [3]; 3, 6, 36 h, small decrease at 3 h, p = 0.14) was “no statistically significant difference” and the “AKT (phospho-Ser129) levels normalized to total AKT in mouse lungs” value (CSNK2 [3]; 3 h time point, p = 0.0028) was “A decrease in the phosphorylation levels of Ser129 of AKT”.
